Laboratory results taken from patent US20250049972A1, “METHOD OF DETECTING PROSTATE CANCER IN A HUMAN SUBJECT USING A Cu 64 PSMA I&T INJECTION” (Curium US LLC, priority 2023, published 2025).

Experiments:
[1] = Phase 2 diagnostic image quality, 3-point scale, independent readers; format: in vivo, human
Procedure: Diagnostic quality was assessed for all scans using a 3-point scale and then percentages for each category were summarized for each reader and time point. No formal hypothesis testing was performed.

[2] = Phase 1 independent reader assessment of image quality (lesion evaluation and general) of 5, 7, 9 mCi scans; format: in vivo, human; conditions: for Lesion evaluation Image Quality Score (Mean [SD]) / Number of Lesions visible: 4-hour scans
Procedure: The Phase 1 portion of the study included a total of 12 patients with biochemical, recurrent PC after prostatectomy or radiation therapy. Patients were randomized into 3 groups of 4 patients. Patients in a given group received a single intravenous dose of 5, 7, or 9 mCi (±10%) of copper Cu-64 PSMA I&T. Whole-body PET/CT images were acquired at 1 hour (±15 minutes), 4 hours (±30 minutes), and 24 hours (±2.0 hours) post injection.
The 1-hour and 4-hour PET/CT images were evaluated independently by 3 readers blinded to all patient information, dose administration, and times of acquisition to assess the quality of the images (24 PET/CT image sets total). In addition, readers performed all assessments in one sitting with images scrambled such that the 1- and 4-hour imaging from the same patient was […]. The imaging protocol, scanner qualification, and imaging time/bed position were identical at 1, 4 and 24 hours and kept constant regardless of dose. The assessments were used together with dose reduction modeling to determine an acceptable dose to be administered for the Phase 2 portion of the study defined as the lowest copper Cu-64 PSMA I&T dose that yielded the most clinically relevant diagnostic image quality based on expert consensus review of all measurements and overall image quality.

O=C(O)CC[C@H](NC(=O)N[C@@H](CCCCNC(=O)CCCCCCC(=O)NCCCC[C@@H](NC(=O)[C@@H](Cc1ccccc1)NC(=O)[C@@H](Cc1ccc(O)c(I)c1)NC(=O)CC[C@H](C(=O)O)N1CCN(CC(=O)O)CCN(CC(=O)O)CCN(CC(=O)O)CC1)C(=O)O)C(=O)O)C(=O)O [Cu-64 PSMA I&T, 64 Cu-(3S, 7S, 26R, 29R, 32R, 37R)-29-benzyl-32(4-hydroxy-3-iodobenzyl)-5, 13, 20, 28, 31, 34-hexaoxo-37-(4,7,10-tris(carboxymethyl)-1,4,7, 10-tetraazacyclododecan-1-yl)-4,6, 12, 21, 27, 30, 33-heptaazaheptatriacontane-1,3,7, 26, 37-pentacarboxylic acid, metal not drawn]
Image Quality Acceptable, patients (%) ([1]; Reader 1, 1 Hour Post Dose): 26 (100.00%) | Image Quality Acceptable, patients (%) ([1]; Reader 1, 4 Hours Post Dose): 26 (100.00%) | Image Quality Acceptable, patients (%) ([1]; Reader 2, 1 Hour Post Dose): 24 (92.31%) | Image Quality Acceptable, patients (%) ([1]; Reader 2, 4 Hours Post Dose): 26 (100.00%) | Image Quality Acceptable, patients (%) ([1]; Reader 3, 1 Hour Post Dose): 26 (100.00%) | Image Quality Acceptable, patients (%) ([1]; Reader 3, 4 Hours Post Dose): 26 (100.00%) | image quality as assessed by the independent readers ([1]; at both 1 and 4 hours): acceptable | Average general image quality across timepoints ([2]; 5 mCi (n = 4)): 1.63 (0.58) | Average general image quality across timepoints ([2]; 7 mCi (n = 4)): 1.58 (0.58) | Average general image quality across timepoints ([2]; 9 mCi): 1.71 (0.46) | Lesion evaluation Image Quality Score (Mean [SD]) ([2]; Reader 1, 5 mCi): 2.00 (0.00) | Number of Lesions visible ([2]; Reader 1, 5 mCi): 19 | Lesion evaluation Image Quality Score (Mean [SD]) ([2]; Reader 1, 7 mCi): 2.00 (0.00) | Number of Lesions visible ([2]; Reader 1, 7 mCi): 15 | Lesion evaluation Image Quality Score (Mean [SD]) ([2]; Reader 1, 9 mCi): 2.00 (0.00) | Number of Lesions visible ([2]; Reader 1, 9 mCi): 12 | General Image Quality score (Mean [SD]) ([2]; Reader 1, 1 hour, 5 mCi (n = 4)): 2.00 (0.00) | General Image Quality score (Mean [SD]) ([2]; Reader 1, 1 hour, 7 mCi (n = 4)): 2.00 (0.00) | General Image Quality score (Mean [SD]) ([2]; Reader 1, 1 hour, 9 mCi): 1.75 (0.50) | General Image Quality score (Mean [SD]) ([2]; Reader 1, 4 hours, 5 mCi (n = 4)): 1.75 (0.50) | General Image Quality score (Mean [SD]) ([2]; Reader 1, 4 hours, 7 mCi (n = 4)): 2.00 (0.00) | General Image Quality score (Mean [SD]) ([2]; Reader 1, 4 hours, 9 mCi): 1.75 (0.50) | Lesion evaluation Image Quality Score (Mean [SD]) ([2]; Reader 2, 5 mCi): 2.00 (0.00) | Number of Lesions visible ([2]; Reader 2, 5 mCi): 17 | Lesion evaluation Image Quality Score (Mean [SD]) ([2]; Reader 2, 7 mCi): 1.77 (0.44) | Number of Lesions visible ([2]; Reader 2, 7 mCi): 13 | Lesion evaluation Image Quality Score (Mean [SD]) ([2]; Reader 2, 9 mCi): 2.00 (0.00) | Number of Lesions visible ([2]; Reader 2, 9 mCi): 13 | General Image Quality score (Mean [SD]) ([2]; Reader 2, 1 hour, 5 mCi (n = 4)): 2.00 (0.00) | General Image Quality score (Mean [SD]) ([2]; Reader 2, 1 hour, 7 mCi (n = 4)): 1.00 (0.82) | General Image Quality score (Mean [SD]) ([2]; Reader 2, 1 hour, 9 mCi): 1.75 (0.50) | General Image Quality score (Mean [SD]) ([2]; Reader 2, 4 hours, 5 mCi (n = 4)): 2.00 (0.00) | General Image Quality score (Mean [SD]) ([2]; Reader 2, 4 hours, 7 mCi (n = 4)): 1.50 (0.58) | General Image Quality score (Mean [SD]) ([2]; Reader 2, 4 hours, 9 mCi): 2.00 (0.00) | Number of Lesions visible ([2]; Reader 3, 5 mCi): 19 | Number of Lesions visible ([2]; Reader 3, 7 mCi): 12 | Lesion evaluation Image Quality Score (Mean [SD]) ([2]; Reader 3, 9 mCi): 1.85 (0.38) | Number of Lesions visible ([2]; Reader 3, 9 mCi): 13 | General Image Quality score (Mean [SD]) ([2]; Reader 3, 1 hour, 5 mCi (n = 4)): 1.00 (0.00) | General Image Quality score (Mean [SD]) ([2]; Reader 3, 1 hour, 7 mCi (n = 4)): 1.25 (0.50) | General Image Quality score (Mean [SD]) ([2]; Reader 3, 1 hour, 9 mCi): 1.50 (0.58) | General Image Quality score (Mean [SD]) ([2]; Reader 3, 4 hours, 5 mCi (n = 4)): 1.00 (0.82) | General Image Quality score (Mean [SD]) ([2]; Reader 3, 4 hours, 7 mCi (n = 4)): 1.75 (0.50) | General Image Quality score (Mean [SD]) ([2]; Reader 3, 4 hours, 9 mCi): 1.50 (0.58) | QIQS (general image quality), lowest score ([2]; at 4 hours, 5, 7 and 9 mCi, all readers): ≥ 1.00
